This note sets out measurements from patent publication US20130195815A1, “METHOD FOR LABELING INSULIN-SECRETING PANCREATIC BETA CELLS AND OBTAINING PURIFIED INSULIN-SECRETING PANCREATIC B-CELLS AND AN INSULIN REPORTED” (NORTH CAROLINA CENTRAL UNIVERSITY, priority 2011, published 2013).

This assay deals with INS-1 cells. The assay can be described thus: GSIS assay: release of PPI-mCherry reporter into conditioned media (relative fluorescence). It counts as cell-based, rat. The settings on record: INS-1 cells transduced with PPI-mCherry, 2 h.

Description: (HG—high glucose (25 mM): LG—low glucose (5.6 mM): Ex—10 nM: NF—nifedipine 10 μM, calcium channel blocker/inhibitor) (Y-axis=normalized fluorescent units—FLU).
The reporter system was tested in insulin secretion assays.
GSIS: INS-1 cells were transduced with PPI-mCherry and allowed to recover. […] Conditioned media was removed and spotted onto a membrane and relative fluorescence determined using an Odyssey CLx imager (Licor Corp).

For the substance “PPI-mCherry: Genetically encoded preproinsulin-mCherry fluorescent protein reporter (SEQ ID NO: 1), delivered by pLenti vector”, the “glucose stimulated release of the PPI-mCherry reporter (high vs low glucose)” value is reported as 1.7 fold.
